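Assay format: 96-well plates, 48-hour exposure. TGI marks complete inhibition of growth.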
Experiments:
Test in all cases: inhibition of tumour cell growth, NCI panel, 48 h
A498 renal = tested on: A498 renal
A549 NSCLC = tested on: A549 NSCLC
ACHN renal = tested on: ACHN renal
BT-549 breast = tested on: BT-549 breast
CAKI-1 renal = tested on: CAKI-1 renal
CCRF-CEM leukemia = tested on: CCRF-CEM leukemia
EKVX NSCLC = tested on: EKVX NSCLC
HCC-2998 colon = tested on: HCC-2998 colon
HCT-15 colon = tested on: HCT-15 colon
HL-60(TB) leukemia = tested on: HL-60(TB) leukemia
HOP-62 NSCLC = tested on: HOP-62 NSCLC
HOP-92 NSCLC = tested on: HOP-92 NSCLC
KM12 colon = tested on: KM12 colon
M14 melanoma = tested on: M14 melanoma
MCF7 breast = tested on: MCF7 breast
MDA-MB-231 breast = tested on: MDA-MB-231 breast
MDA-MB-435 = tested on: MDA-MB-435
MDA-N = tested on: MDA-N
NCI-H226 lung = tested on: NCI-H226 lung
NCI-H23 lung = tested on: NCI-H23 lung
NCI-H460 lung = tested on: NCI-H460 lung
NCI/ADR-RES ovarian = tested on: NCI/ADR-RES ovarian
OVCAR-3 ovarian = tested on: OVCAR-3 ovarian
OVCAR-4 ovarian = tested on: OVCAR-4 ovarian
OVCAR-5 ovarian = tested on: OVCAR-5 ovarian
OVCAR-8 ovarian = tested on: OVCAR-8 ovarian
PC-3 prostate = tested on: PC-3 prostate
RPMI-8226 leukemia = tested on: RPMI-8226 leukemia
RXF 393 renal = tested on: RXF 393 renal
SF-268 CNS = tested on: SF-268 CNS
SF-295 CNS = tested on: SF-295 CNS
SF-539 CNS = tested on: SF-539 CNS
SK-MEL-2 melanoma = tested on: SK-MEL-2 melanoma
SK-MEL-28 melanoma = tested on: SK-MEL-28 melanoma
SK-OV-3 ovarian = tested on: SK-OV-3 ovarian
SN12C renal = tested on: SN12C renal
SNB-19 CNS = tested on: SNB-19 CNS
SNB-75 CNS = tested on: SNB-75 CNS
SW-620 colon = tested on: SW-620 colon
TK-10 renal = tested on: TK-10 renal
U251 CNS = tested on: U251 CNS
UACC-257 melanoma = tested on: UACC-257 melanoma
UACC-62 melanoma = tested on: UACC-62 melanoma
UO-31 renal = tested on: UO-31 renal
786-0 renal = tested on: 786-0 renal
COLO 205 colon = tested on: COLO 205 colon
DU-145 prostate = tested on: DU-145 prostate
HCT-116 colon = tested on: HCT-116 colon
HS 578T breast = tested on: HS 578T breast
HT29 colon = tested on: HT29 colon
IGROV1 ovarian = tested on: IGROV1 ovarian
K-562 leukemia = tested on: K-562 leukemia
LOX IMVI melanoma = tested on: LOX IMVI melanoma
MALME-3M melanoma = tested on: MALME-3M melanoma
MOLT-4 leukemia = tested on: MOLT-4 leukemia
NCI-H522 lung = tested on: NCI-H522 lung
SK-MEL-5 melanoma = tested on: SK-MEL-5 melanoma
T-47D breast = tested on: T-47D breast
SR leukemia = tested on: SR leukemia

Cc1c(C#N)c2nnn(C)c(=O)n2c1-c1ccccc1
TGI (A498 renal): > 100 µM
TGI (A549 NSCLC): > 100 µM
TGI (ACHN renal): > 100 µM
TGI (BT-549 breast): > 100 µM
TGI (CAKI-1 renal): > 100 µM
TGI (CCRF-CEM leukemia): > 100 µM
TGI (EKVX NSCLC): > 100 µM
TGI (HCC-2998 colon): > 100 µM
TGI (HCT-15 colon): > 100 µM
TGI (HL-60(TB) leukemia): > 100 µM
TGI (HOP-62 NSCLC): > 100 µM
TGI (HOP-92 NSCLC): > 100 µM
TGI (KM12 colon): > 100 µM
TGI (M14 melanoma): > 100 µM
TGI (MCF7 breast): > 100 µM
TGI (MDA-MB-231 breast): > 100 µM
TGI (MDA-MB-435): > 100 µM
TGI (MDA-N): > 100 µM
TGI (NCI-H226 lung): > 100 µM
TGI (NCI-H23 lung): > 100 µM
TGI (NCI-H460 lung): > 100 µM
TGI (NCI/ADR-RES ovarian): > 100 µM
TGI (OVCAR-3 ovarian): > 100 µM
TGI (OVCAR-4 ovarian): > 100 µM
TGI (OVCAR-5 ovarian): > 100 µM
TGI (OVCAR-8 ovarian): > 100 µM
TGI (PC-3 prostate): > 100 µM
TGI (RPMI-8226 leukemia): > 100 µM
TGI (RXF 393 renal): > 100 µM
TGI (SF-268 CNS): > 100 µM
TGI (SF-295 CNS): > 100 µM
TGI (SF-539 CNS): > 100 µM
TGI (SK-MEL-2 melanoma): > 100 µM
TGI (SK-MEL-28 melanoma): > 100 µM
TGI (SK-OV-3 ovarian): > 100 µM
TGI (SN12C renal): > 100 µM
TGI (SNB-19 CNS): > 100 µM
TGI (SNB-75 CNS): > 100 µM
TGI (SW-620 colon): > 100 µM
TGI (TK-10 renal): > 100 µM
TGI (U251 CNS): > 100 µM
TGI (UACC-257 melanoma): > 100 µM
TGI (UACC-62 melanoma): > 100 µM
TGI (UO-31 renal): > 100 µM

O=C(NC(C(F)(F)F)(C(F)(F)F)P(=O)(c1ccccc1)c1ccccc1)C(C(F)(F)F)C(F)(F)F
TGI (786-0 renal): 47.8 µM
TGI (A498 renal): > 100 µM
TGI (A549 NSCLC): > 100 µM
TGI (ACHN renal): 30.9 µM
TGI (CAKI-1 renal): 0.0564 µM
TGI (CCRF-CEM leukemia): > 100 µM
TGI (COLO 205 colon): 37.4 µM
TGI (DU-145 prostate): > 100 µM
TGI (EKVX NSCLC): > 100 µM
TGI (HCC-2998 colon): > 100 µM
TGI (HCT-116 colon): 39.1 µM
TGI (HCT-15 colon): 83.3 µM
TGI (HL-60(TB) leukemia): 63.2 µM
TGI (HOP-62 NSCLC): > 100 µM
TGI (HS 578T breast): > 100 µM
TGI (HT29 colon): 56 µM
TGI (IGROV1 ovarian): 57.7 µM
TGI (K-562 leukemia): > 100 µM
TGI (KM12 colon): 56.8 µM
TGI (LOX IMVI melanoma): 58.9 µM
TGI (M14 melanoma): 36.3 µM
TGI (MALME-3M melanoma): 33.6 µM
TGI (MCF7 breast): 62.1 µM
TGI (MDA-MB-231 breast): 59.2 µM
TGI (MDA-MB-435): 37.7 µM
TGI (MDA-N): 44.2 µM
TGI (MOLT-4 leukemia): > 100 µM
TGI (NCI-H226 lung): > 100 µM
TGI (NCI-H23 lung): 64.2 µM
TGI (NCI-H460 lung): > 100 µM
TGI (NCI-H522 lung): 71.6 µM
TGI (NCI/ADR-RES ovarian): 47.9 µM
TGI (OVCAR-3 ovarian): 69.7 µM
TGI (OVCAR-4 ovarian): > 100 µM
TGI (OVCAR-5 ovarian): > 100 µM
TGI (OVCAR-8 ovarian): 72.8 µM
TGI (PC-3 prostate): 80.8 µM
TGI (RPMI-8226 leukemia): 91.8 µM
TGI (RXF 393 renal): 68.2 µM
TGI (SF-268 CNS): > 100 µM
TGI (SF-295 CNS): > 100 µM
TGI (SF-539 CNS): 52.1 µM
TGI (SK-MEL-2 melanoma): > 100 µM
TGI (SK-MEL-28 melanoma): > 100 µM
TGI (SK-MEL-5 melanoma): 37 µM
TGI (SK-OV-3 ovarian): > 100 µM
TGI (SN12C renal): 77 µM
TGI (SNB-19 CNS): > 100 µM
TGI (SNB-75 CNS): 91.3 µM
TGI (SW-620 colon): 62.3 µM
TGI (T-47D breast): > 100 µM
TGI (TK-10 renal): 72.7 µM
TGI (U251 CNS): > 100 µM
TGI (UACC-257 melanoma): 82.2 µM
TGI (UACC-62 melanoma): > 100 µM

COC(=O)N1C[C@@]2(C=CC3(CC2)OCCO3)c2ccccc21
TGI (786-0 renal): > 100 µM
TGI (A498 renal): > 100 µM
TGI (A549 NSCLC): > 100 µM
TGI (ACHN renal): > 100 µM
TGI (CAKI-1 renal): > 100 µM
TGI (CCRF-CEM leukemia): > 100 µM
TGI (COLO 205 colon): > 100 µM
TGI (DU-145 prostate): > 100 µM
TGI (EKVX NSCLC): > 100 µM
TGI (HCC-2998 colon): > 100 µM
TGI (HCT-116 colon): > 100 µM
TGI (HCT-15 colon): > 100 µM
TGI (HL-60(TB) leukemia): 58.4 µM
TGI (HOP-62 NSCLC): > 100 µM
TGI (HOP-92 NSCLC): > 100 µM
TGI (HT29 colon): > 100 µM
TGI (IGROV1 ovarian): > 100 µM
TGI (K-562 leukemia): > 100 µM
TGI (KM12 colon): > 100 µM
TGI (LOX IMVI melanoma): > 100 µM
TGI (M14 melanoma): > 100 µM
TGI (MCF7 breast): > 100 µM
TGI (MDA-MB-231 breast): > 100 µM
TGI (MDA-MB-435): 74.5 µM
TGI (MDA-N): > 100 µM
TGI (MOLT-4 leukemia): > 100 µM
TGI (NCI-H23 lung): > 100 µM
TGI (NCI-H460 lung): > 100 µM
TGI (NCI/ADR-RES ovarian): 95.6 µM
TGI (OVCAR-3 ovarian): > 100 µM
TGI (OVCAR-4 ovarian): > 100 µM
TGI (OVCAR-5 ovarian): > 100 µM
TGI (OVCAR-8 ovarian): > 100 µM
TGI (PC-3 prostate): > 100 µM
TGI (RPMI-8226 leukemia): > 100 µM
TGI (SF-295 CNS): > 100 µM
TGI (SK-MEL-2 melanoma): > 100 µM
TGI (SK-MEL-28 melanoma): > 100 µM
TGI (SK-MEL-5 melanoma): > 100 µM
TGI (SK-OV-3 ovarian): > 100 µM
TGI (SN12C renal): > 100 µM
TGI (SNB-19 CNS): > 100 µM
TGI (SNB-75 CNS): > 100 µM
TGI (SR leukemia): > 100 µM
TGI (SW-620 colon): > 100 µM
TGI (T-47D breast): > 100 µM
TGI (TK-10 renal): > 100 µM
TGI (U251 CNS): > 100 µM
TGI (UACC-257 melanoma): > 100 µM
TGI (UACC-62 melanoma): > 100 µM
TGI (UO-31 renal): > 100 µM

COc1ccc(C(=O)/C=C/c2ccc(OCC(=N)N)cc2)cc1OC
TGI (786-0 renal): > 10 µM
TGI (A549 NSCLC): > 10 µM
TGI (CAKI-1 renal): > 10 µM
TGI (CCRF-CEM leukemia): 8.86 µM
TGI (COLO 205 colon): > 10 µM
TGI (DU-145 prostate): > 10 µM
TGI (EKVX NSCLC): > 10 µM
TGI (HCC-2998 colon): > 10 µM
TGI (HCT-15 colon): > 10 µM
TGI (HL-60(TB) leukemia): 4.82 µM
TGI (HOP-62 NSCLC): > 10 µM
TGI (HT29 colon): > 10 µM
TGI (IGROV1 ovarian): > 10 µM
TGI (K-562 leukemia): > 10 µM
TGI (KM12 colon): 8.31 µM
TGI (LOX IMVI melanoma): > 10 µM
TGI (M14 melanoma): > 10 µM
TGI (MALME-3M melanoma): > 10 µM
TGI (MCF7 breast): > 10 µM
TGI (MDA-MB-231 breast): > 10 µM
TGI (MDA-N): > 10 µM
TGI (NCI-H23 lung): > 10 µM
TGI (OVCAR-8 ovarian): > 10 µM
TGI (PC-3 prostate): > 10 µM
TGI (RPMI-8226 leukemia): > 10 µM
TGI (RXF 393 renal): > 10 µM
TGI (SF-268 CNS): > 10 µM
TGI (SF-295 CNS): > 10 µM
TGI (SK-MEL-28 melanoma): > 10 µM
TGI (SK-MEL-5 melanoma): > 10 µM
TGI (SK-OV-3 ovarian): > 10 µM
TGI (SN12C renal): > 10 µM
TGI (SNB-75 CNS): 9.98 µM
TGI (SR leukemia): 4.39 µM
TGI (SW-620 colon): > 10 µM
TGI (T-47D breast): > 10 µM
TGI (TK-10 renal): > 10 µM
TGI (UACC-257 melanoma): > 10 µM
TGI (UACC-62 melanoma): > 10 µM
